pIC50: −log10 of the molar value. Counter-ions that a name gives are not always drawn. Some results are limits rather than exact numbers.

For one series, the target named is T1, human serotonin transporter (hSERT) (Homo sapiens, UniProt P31645).
T1 construct: expressed in transfected cells; host or cells: HEK-293 (human embryonic kidney cells), stably transfected
T1 sequence (P31645 whole entry): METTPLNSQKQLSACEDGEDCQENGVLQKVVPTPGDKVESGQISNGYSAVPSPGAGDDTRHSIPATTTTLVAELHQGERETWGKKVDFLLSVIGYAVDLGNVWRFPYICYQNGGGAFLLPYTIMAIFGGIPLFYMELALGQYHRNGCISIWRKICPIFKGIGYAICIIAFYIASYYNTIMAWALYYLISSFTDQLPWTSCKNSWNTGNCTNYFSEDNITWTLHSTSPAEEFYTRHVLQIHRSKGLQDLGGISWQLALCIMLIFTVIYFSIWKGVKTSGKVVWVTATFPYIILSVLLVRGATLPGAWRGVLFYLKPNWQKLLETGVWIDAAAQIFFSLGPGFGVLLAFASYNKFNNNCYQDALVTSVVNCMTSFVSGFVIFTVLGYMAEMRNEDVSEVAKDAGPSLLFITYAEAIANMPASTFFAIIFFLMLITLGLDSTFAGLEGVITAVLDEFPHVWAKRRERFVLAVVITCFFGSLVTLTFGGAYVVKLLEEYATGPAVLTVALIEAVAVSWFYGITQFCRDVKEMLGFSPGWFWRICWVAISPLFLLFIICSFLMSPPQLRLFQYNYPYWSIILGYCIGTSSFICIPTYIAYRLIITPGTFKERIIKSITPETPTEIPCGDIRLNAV
Kind of series: Inhibition of 3H-Serotonin uptake into HEK-293 cells stably transfected with hSERT. The format is cell-based.
Conditions: not given
Here is the method:
A number of compounds were tested for biological activity by their ability to inhibit the uptake of serotonin by human serotonin transporters as follows.
Human embryonic kidney cells (HEK-293) stably transfected with either the human serotonin transporter (hSERT), noradrenaline transporter (hNET) or dopamine transporter (hDAT) were cultured under standard cell culture techniques (cells were grown at 37° C and 5% CO2 in DMEM-culture media (supplemented with 10% dialysed foetal calf serum (FCS), 2 mM 1-glutamine and 250 μg/ml geneticin)). Cells were harvested for the assay to yield a cell suspension of 750,000 cells/ml.
(i) Determination of inhibitor potency
All test compounds were dissolved in 100% DMSO and diluted down in assay buffer to give appropriate test concentrations. Assays were carried out in 96-well filter bottom plates. Cells (7500 cells/assay well) were pre-incubated in standard assay buffer containing either test compound, standard inhibitor or compound vehicle (1 % DMSO) for 5 minutes. Reactions were started by addition of either ^3H-Serotonin, ^3H-Noradrenaline or ^3H-Dopamine substrates. All reactions were carried out at room temperature in a shaking incubator. Incubation times were 5 minutes for the hSERT and hDAT assays and 15 minutes for the hNET assay. Reactions were terminated by removal of the reaction mixture using a vacuum manifold followed by rapid washing with ice cold assay buffer. The quantity of ^3H-substrate incorporated into the cells was then quantified.
Assay plates were dried in a microwave oven, scintillation fluid added, and radioactivity measured.
(iii) Standard Assay Buffer Composition:
Note: The pH of the buffer was adjusted to 7.40 with 1 M NaOH before addition of CaCI2 and pargyline.
(iv) Summary of Assay Parameters
The term pIC50 denotes the negative decadic logarithm of the IC50, by convention in mol/L. As for `CNCc1cc(Br)ccc1Oc1ccc(SC)cc1` [Example 23, N-{5-Bromo-2-[4-(methylsulfanyl)phenoxy]benzyl}-N-methylamine], the negative-log IC50 (pIC50) is at least 7.30.

Regarding `CNCc1cc(-n2ccnn2)ccc1Oc1ccc(SC)cc1` [Example 181, N-Methyl-N-[2-[4-(methylsulfanyl)phenoxy]-5-(1 H-1,2,3-triazol-1-yl)benzyl]amine], the pIC50 is at least 7.30.

`CNCc1cc(-n2nccn2)ccc1Oc1ccc(SC)cc1` [Example 182, N-methyl-N-[2-[4-(methylsulfanyl)phenoxy]-5-(2 H-1,2,3-triazol-2-yl)benzyl]amine] showed a pIC50 of at least 7.30.

On to `CNCc1cc(-n2cncn2)ccc1Oc1ccc(SC)cc1` [Example 187, N-Methyl-N-[2-[4-(methylsulfanyl)phenoxy]-5-(1 H-1,2,4-triazol-1-yl)benzyl]amine], for which the pIC50 was at least 7.30.

Compound `CNCc1cc(-n2ccnc2)ccc1Oc1ccc(SC)cc1` [Example 185, N-[2-[4-(Methylsulfanyl)phenoxy]-5-(1 H-imidazol-1-yl)benzyl]-N-methylamine] showed a pIC50 of at least 7.30.

`CSc1ccc(Oc2ccc(-n3cnnc3)cc2CN(C)C)cc1` [Example 189, N-[2-[4-(Methylsulfanyl)phenoxy]-5-(4H-1,2,4-triazol-4-yl)benzyl]-N,N-dimethylamine] gave a pIC50 of at least 7.30.

As for `CSc1ccc(Oc2ccc(-n3nccn3)cc2CN(C)C)cc1` [Example 183, N,N-Dimethyl-N-[2-[4-(methylsulfanyl)phenoxy]-5-(2 H-1,2,3-triazol-2-yl)benzyl]amine], the pIC50 is at least 7.30.

Compound `CSc1ccc(Oc2ccc(NS(=O)(=O)C(F)(F)F)cc2CN(C)C)cc1` [Example 140, N-{3-[(Dimethylamino)methyl]-4-[4-(methylsulfanyl)phenoxy]phenyl}-(trifluoro)methanesulfonamide] gave a pIC50 of at least 7.30.

The series is the same for the next values; noted with them: HEK-293 cells transfected with hSERT, 3H-Serotonin uptake, 5 minutes incubation, room temperature; read-out: serotonin re-uptake inhibition (SRI) IC50.
`CSc1ccc(Oc2ccc(Br)cc2CN(C)C)cc1` [Example 9]: the pIC50 was at least 7.30.

Take `CNCc1cc(C#N)ccc1Oc1ccc(SC)cc1` [Example 87, 3-[(Methylamino)methyl]-4-[4-(methylsulfanyl)phenoxy]benzonitrile]: the pIC50 was at least 7.30.

As for `CSc1ccc(Oc2ccc(OC(F)(F)F)cc2)c(CN(C)C)c1` [Example 141, N,N-Dimethyl-N-{5-(methylsulfanyl)-2-[4-(trifluoromethoxy)phenoxy]benzyl}amine], the negative logarithm of the IC50 (pIC50) is at least 7.30.

Take `CN(C)Cc1cc(S(C)(=O)=O)ccc1Oc1ccc(OC(F)(F)F)cc1` [Example 145, N,N-Dimethyl-N-{5-(methylsulfonyl)-2-[4-(trifluoromethoxy)phenoxy]benzyl}amine]: the pIC50 is at least 7.30.

With `CN(C)Cc1ccc(CNS(C)(=O)=O)cc1Oc1ccc(OC(F)(F)F)cc1` [Example 120], the pIC50 is at least 7.30.

For the compound `CN(C)Cc1cc(CN)ccc1Oc1ccc(OC(F)(F)F)cc1` [Example 110, N-{5-(Aminomethyl)-2-[4-(trifluoromethoxy)phenoxy]benzyl}-N,N-dimethylamine], the pIC50 was at least 7.30.

Turning to `CSc1ccc(Oc2ccc(C#N)cc2CN(C)C)cc1` [Example 85], the pIC50 was at least 7.30.

Consider `CN(C)Cc1cc(NS(C)(=O)=O)ccc1Oc1ccc(C(F)(F)F)cc1` [Example 114, N-(3-[(Dimethylamino)methyl]-4-[4-(trifluoromethyl)phenoxy]phenyl} methanesulfonamide], for which the pIC50 is at least 7.30.

Take `CSc1ccc(Oc2ccc(C(N)=O)cc2CN(C)C)cc1` [Example 91, 3-[(Dimethylamino)methyl]-4-[4-(methylsulfanyl)phenoxy]benzamide]: the pIC50 is at least 7.30.

`CNCc1cc(O)ccc1Oc1ccc(SC)cc1` [Example 74, 3-[(Methylamino)methyl]-4-[4-(methylsulfanyl)phenoxy]phenol]: the pIC50 was at least 7.30.

For the compound `CC[S+]([O-])c1ccc(CN(C)C)c(Oc2ccc(C(F)(F)F)cc2)c1` (stereo not shown) [Example 148], the negative-log IC50 (pIC50) was at least 7.30.

Consider `CNCc1cc(NS(C)(=O)=O)ccc1Oc1ccc(C(F)(F)F)cc1` [Example 121, N-{3-[(Methylamino)methyl]-4-[4-(trifluoromethyl)phenoxy]phenyl}-methanesulfonamide], for which the pIC50 was at least 7.30.

Take `CNCc1cc(-n2ccc(N)n2)ccc1Oc1ccc(SC)cc1` [Example 190, N-{5-(3-Amino-1H-pyrazol-1-yl)-2-[4-(methylsulfanyl)phenoxy]benzyl}-N-methylamine]: the negative logarithm of the IC50 (pIC50) is at least 7.30.

As to `CSc1ccc(Oc2ccc(S(N)(=O)=O)cc2CN(C)C)cc1` [Example 28, 3-[(Dimethylamino)methyl]-4-[4-(methylsulfanyl)phenoxy]benzenesulfonamide], the pIC50 is at least 7.30.

As to `CSc1ccc(Oc2ccc(-n3ccnn3)cc2CN(C)C)cc1` [Example 184, N,N-Dimethyl-N-[2-[4-(methylsulfanyl)phenoxy]-5-(1 H-1,2,3-triazol-1-yl)benzyl]-amine], the pIC50 is at least 7.30.

With `CN(C)Cc1cc(NS(C)(=O)=O)ccc1Oc1ccc(OC(F)(F)F)cc1` [Example 116], the negative logarithm of the IC50 (pIC50) was at least 7.30.

Turning to `CNS(=O)(=O)c1ccc(Oc2ccc(C(F)(F)F)cc2)c(CN(C)C)c1` [Example 30], the pIC50 was at least 7.30.

Take `CNCc1cc(C(=O)NC)ccc1Oc1ccc(SC)c(OC)c1` [Example 176]: the pIC50 is at least 7.30.

Turning to `CNCc1cc(C(N)=O)ccc1Oc1ccc(SC)cc1` [Example 97], the pIC50 was at least 7.30.

Turning to `CN(C)Cc1cc(C#N)ccc1Oc1ccc(OC(F)(F)F)cc1` [Example 84], the pIC50 was at least 7.30.

In the case of `CN(C)Cc1cc(C(N)=O)ccc1Oc1ccc(OC(F)(F)F)cc1` [Example 94], the negative logarithm of the IC50 (pIC50) was at least 7.30.

For `CNCc1cc(C(N)=O)ccc1Oc1ccc(SC)c(OC)c1` [Example 169, 4-[3-Methoxy-4-(methylsulfanyl)phenoxy]-3-[(methylamino)methyl]benzamide], the pIC50 is at least 7.30.

With `CSc1ccc(Oc2ccc(-n3cncn3)cc2CN(C)C)cc1` [Example 188, N,N-dimethyl-N-[2-[4-(methylsulfanyl)phenoxy]-5-(1 H-1,2,4-triazol-1-yl)benzyl]-amine], the pIC50 was at least 7.30.

As for `CN(C)Cc1ccc(C(N)=O)cc1Oc1ccc(C(F)(F)F)cc1` [Example 90, 4-[(Dimethylamino)methyl]-3-[4-(trifluoromethyl)phenoxy]benzamide], the pIC50 was at least 7.30.

Take `CSc1ccc(Oc2ccc(S(=O)(=O)N[C@@H](C)CO)cc2CN(C)C)cc1` [Example 53]: the pIC50 is at least 7.30.

Regarding `CNC(=O)c1ccc(Oc2ccc(OC(F)(F)F)cc2)c(CN(C)C)c1` [Example 101], the pIC50 was at least 7.30.

On to `CN(C)Cc1cc(CNS(C)(=O)=O)ccc1Oc1ccc(OC(F)(F)F)cc1` [Example 117], for which the pIC50 is at least 7.30.

For `CN(C)Cc1cc(CO)ccc1Oc1ccc(OC(F)(F)F)cc1` [Example 157], the pIC50 is at least 7.30.

For the compound `CNCc1cc(C(=O)N[C@@H](C)CO)ccc1Oc1ccc(SC)cc1` [Example 174], the pIC50 is at least 7.30.

Regarding `CNCc1cc(C(=O)NCCOC)ccc1Oc1ccc(SC)cc1` [Example 170], the pIC50 is at least 7.30.

In the case of `CNCc1cc(NS(C)(=O)=O)ccc1Oc1ccc(SC)cc1` [Example 128, N-{3-[(Methylamino)methyl]-4-[4-(methylsulfanyl)phenoxy]phenyl}methanesulfonamide], the pIC50 is at least 7.30.

With `CNCc1cc(N(CCO)S(C)(=O)=O)ccc1Oc1ccc(SC)cc1` [Example 130], the pIC50 was at least 7.30.

With `CN(C)Cc1ccc(C(N)=O)cc1Oc1ccc(OC(F)(F)F)cc1` [Example 98, 4-[(Dimethylamino)methyl]-3-[4-(trifluoromethoxy)phenoxy]benzamide], the pIC50 was at least 7.30.

With `CN(C)Cc1cc(C(N)=O)ccc1Oc1ccc(C(F)(F)F)cc1` [Example 95], the pIC50 was at least 7.30.

For `CN(C)Cc1cc([S+](C)[O-])ccc1Oc1ccc(C(F)(F)F)cc1` (stereo not shown) [Example 147], the pIC50 is at least 7.30.

As for `CNCc1cc(CO)ccc1Oc1ccc(SC)cc1` [Example 156, {3-[(Methylamino)methyl]-4-[4-(methylsulfanyl)phenoxy]phenyl}methanol], the pIC50 was at least 7.30.

Consider `COc1ccc(Oc2ccc(SC)cc2)c(CN(C)C)c1` [Example 14], for which the pIC50 was at least 7.30.

As to `CSc1ccc(Oc2ccc(Cl)cc2CN(C)C)cc1` [Example 135], the pIC50 was at least 7.30.

As for `CN(C)Cc1cc(S(N)(=O)=O)ccc1Oc1ccc(OC(F)(F)F)cc1` [Example 36], the pIC50 was at least 7.30.

Take `CN(C)Cc1cc(Br)ccc1Oc1ccc(C(F)(F)F)cc1` [Example 3]: the pIC50 was at least 7.30.

Test system in the next series: not given
Experiment: not given
Conditions: not given
The melting point is the temperature, or range, at which the solid turns liquid. Take `CSc1ccc(Oc2ccc(S(N)(=O)=O)cc2CN(C)C)cc1` (as salt: hydrochloride) [Example 28, 3-[(Dimethylamino)methyl]-4-[4-(methylsulfanyl)phenoxy]benzenesulfonamide]: the melting point fell in the range of 193 to 194 °C.

The values above are taken from patent US6448293B1, “Diphenyl ether compounds useful in therapy” (Pfizer Inc., priority 2000, dated 2002).
